Some targets named below: HLA-DR DRB1*0101 (DR1) (Homo sapiens, UniProt P01903+P01911, A100R/D57E/F55L/F60I/F76Y/I96L/L162R/M171V/P40L/Q125E/R42F/V115G/Y59C); HLA-DR DRB1*0401 (DR4) (Homo sapiens, UniProt P01903+P01911, A100K/A169T/F76Y/I96L/K127E/L162R/M171V/N62H/P40V/Q125Y/R42H/S133A/S149N/S66Y/V115G/V209L/W38E); HLA-DR DRB1*0802 (DR8) (Homo sapiens, UniProt P01903+P01911, A100R/A103L/A169T/F76Y/H45Y/I96F/K41T/L162R/M171V/P40S/Q125H/Q178H/Q39Y/Q99D/R218S/R42G/S66Y/V115G/W38E); HLA-DR DRB1*1501 (DR15) (Homo sapiens, UniProt P01903+P01911); HLA-DR DRB4*0101 (DR53) (Homo sapiens, UniProt P01903+P13762, G164S); HLA-DR DRB1*0701 (DR7) (Homo sapiens, UniProt P01903+P01911, A100R/A102G/A103Q/D57E/D86V/E43K/F76Y/K127E/L162R/M171V/P40G/Q125H/Q99D/R33Q/R42Y/R54Q/S133A/S66F/T210M/V115G/Y107V/Y59L/Y89S); HLA-DR DRB1*0901 (DR9) (Homo sapiens, UniProt P01903+P01911, A100R/A103E/D57H/D86V/F55Y/F60I/F76Y/I96F/K127E/L162R/M171V/P40D/Q125H/Q99R/R33Q/R42F/S133A/S66N/T210M/V115G/W38K/Y107V/Y59G/Y89S); HLA-DR DRB1*1302 (DR13) (Homo sapiens, UniProt P01903+P01911, A100E/A169T/K41T/L162R/M171V/P40S/Q125H/Q178H/Q39Y/Q99D/R42S/S66N/T262R/V115G/W38E/Y61H).

What all share (assay): biochemical
What all share (type): binding

A further test has as its target HLA-DR DRB5*0101 (DR51) (Homo sapiens, UniProt P01903+Q30154). Conditions: DRB5 *0101.
A further test concerns the target HLA-DR DRB1*1101 (DR11) (Homo sapiens, UniProt P01903+P01911, A100R/A169T/A87E/I96F/K41T/L162R/M171V/P40S/Q125H/Q178H/Q39Y/Q99D/R42S/S66Y/T262R/V115G/W38E). Conditions: DRB1 *1101.

From patent publication US20060079453A1, “Hla binding peptides and their uses” (priority 2002, published 2006) come the findings set out here.

Like-named read-outs stand apart in the source and are kept apart here. No end group written: not given here. A value given as a limit tells only on which side of the number the result lay.

Chain of HLA-DR DRB1*1302 (DR13) (P01903 26-254 limits assumed, other chains not shown): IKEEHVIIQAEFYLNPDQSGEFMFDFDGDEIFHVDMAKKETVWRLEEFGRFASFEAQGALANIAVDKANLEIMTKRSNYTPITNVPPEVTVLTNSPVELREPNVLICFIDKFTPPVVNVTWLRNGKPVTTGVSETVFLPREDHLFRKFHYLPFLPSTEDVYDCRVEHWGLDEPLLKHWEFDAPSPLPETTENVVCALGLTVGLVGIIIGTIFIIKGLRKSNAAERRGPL
Chain of HLA-DR DRB1*1101 (DR11) (P01903 26-254 limits assumed, other chains not shown): as above

In the case of GVIYIMIISKKMMRK, the IC50 against HLA-DR DRB1*0101 (DR1) (DRB1 *0101) came to 10 nM; at HLA-DR DRB1*0401 (DR4) (DRB1 *0401), 22 nM; at HLA-DR DRB1*0802 (DR8) it was 137 nM; at HLA-DR DRB1*1501 (DR15) (DRBI *1501), 173 nM; at HLA-DR DRB4*0101 (DR53) (DRB4 *0101) it was 157 nM; on HLA-DR DRB5*0101 (DR51), 46 nM.
Regarding NVNLQKQLLTNHLIN [NVNLQKQLLTNHLIN], the IC50 was determined as 96 nM against HLA-DR DRB1*0101 (DR1) (DRB1 *0101); 2460 nM on HLA-DR DRB1*0401 (DR4) (DRB1 *0401); 555 nM against HLA-DR DRB1*0701 (DR7) (DRB1 *0701); 11200 nM at HLA-DR DRB1*0802 (DR8); 4450 nM at HLA-DR DRB1*1501 (DR15) (DRBI *1501); 354 nM on HLA-DR DRB4*0101 (DR53) (DRB4 *0101). In addition, the IC50 at HLA-DR DRB5*0101 (DR51) is more than 7210 nM.
For the molecule DSSIEGNYTLRVDCT, the IC50 on HLA-DR DRB1*0701 (DR7) (read-out: DRB1 *0701) was 14500 nM; at HLA-DR DRB1*0802 (DR8) (read-out: DRB1 *0802), more than 163000 nM; at HLA-DR DRB1*0901 (DR9) (read-out: DRB1 *0901), more than 187000 nM.
Turning to YILLKKILSSRFNQM, the IC50 on HLA-DR DRB1*0101 (DR1) (DRB1 *0101) is 220 nM; at HLA-DR DRB1*0401 (DR4) (DRB1 *0401), 183 nM; against HLA-DR DRB1*0701 (DR7) (DRB1 *0701), 8.3 nM; against HLA-DR DRB1*0802 (DR8), 18 nM; against HLA-DR DRB1*1501 (DR15) (DRBI *1501), 26 nM; at HLA-DR DRB4*0101 (DR53) (DRB4 *0101), 340 nM. At HLA-DR DRB5*0101 (DR51), this molecule displayed an IC50 of 83 nM.
Regarding VEALYLVCGERGFLY, the IC50 was 14 nM against HLA-DR DRB1*0101 (DR1) (DRB1 *0101); 5350 nM against HLA-DR DRB1*0701 (DR7) (DRB1 *0701); 10600 nM at HLA-DR DRB1*0802 (DR8); 3060 nM at HLA-DR DRB1*0901 (DR9) (DRB1 *0901); 55400 nM against HLA-DR DRB1*1101 (DR11); 1870 nM against HLA-DR DRB1*1302 (DR13) (DRBI *1302). The IC50 worked out at 19 nM against HLA-DR DRB4*0101 (DR53) (DRB4 *0101) and 5150 nM against HLA-DR DRB5*0101 (DR51).
On to QKILIKIPVTKNIIT, for which the IC50 at HLA-DR DRB1*0101 (DR1) (DRB1 *0101) is 993 nM; against HLA-DR DRB1*0401 (DR4) (DRB1 *0401) it was 303 nM; against HLA-DR DRB1*0701 (DR7) (DRB1 *0701) it was 534 nM; against HLA-DR DRB1*0802 (DR8), 2240 nM; against HLA-DR DRB1*1302 (DR13) (DRBI *1302) it was 332 nM; on HLA-DR DRB1*1501 (DR15) (DRBI *1501), 3610 nM. Also, the IC50 was found to be 953 nM against HLA-DR DRB4*0101 (DR53) (DRB4 *0101) and 297 nM against HLA-DR DRB5*0101 (DR51).
Regarding FIHFFTWGTMFVPKY, the IC50 stood at 273 nM against HLA-DR DRB1*0401 (DR4) (DRB1 *0401); 489 nM on HLA-DR DRB1*0701 (DR7) (DRB1 *0701); 1700 nM on HLA-DR DRB1*0802 (DR8); 328 nM on HLA-DR DRB1*1302 (DR13) (DRBI *1302); 2380 nM against HLA-DR DRB1*1501 (DR15) (DRBI *1501); 9610 nM at HLA-DR DRB5*0101 (DR51).
Regarding `CC[C@H](C)[C@H](NC(=O)[C@H](Cc1ccc(O)cc1)NC(=O)[C@@H]1CCCN1)C(=O)N[C@@H](CC(C)C)C(=O)N[C@@H](CC(C)C)C(=O)N[C@H](C(=O)N[C@@H](CO)C(=O)N[C@@H](CO)C(=O)N[C@@H](CCCCN)C(=O)N[C@H](C(=O)N[C@@H](CO)C(=O)N[C@H](C(=O)N[C@H](C(=O)N[C@@H](CCCCN)C(=O)N[C@@H](CC(=O)O)C(=O)O)C(C)C)[C@@H](C)O)C(C)C)C(C)C`, the IC50 against HLA-DR DRB1*0101 (DR1) came out at 1.1 nM; against HLA-DR DRB1*0401 (DR4), 64 nM; against HLA-DR DRB1*0701 (DR7), 38 nM; against HLA-DR DRB1*0802 (DR8), 12 nM; on HLA-DR DRB1*1302 (DR13) it was 7.2 nM; at HLA-DR DRB1*1501 (DR15) it was 22 nM. Also, the IC50 turned out to be 107 nM against HLA-DR DRB4*0101 (DR53) and 32 nM against HLA-DR DRB5*0101 (DR51).
For LKELIKVGLPSFENL, the IC50 is 99 nM at HLA-DR DRB1*0101 (DR1) (DRB1 *0101); 163 nM on HLA-DR DRB1*0401 (DR4) (DRB1 *0401); 542 nM against HLA-DR DRB1*0701 (DR7) (DRB1 *0701); 1490 nM on HLA-DR DRB1*0802 (DR8); 361 nM against HLA-DR DRB1*1501 (DR15) (DRBI *1501); 110 nM at HLA-DR DRB4*0101 (DR53) (DRB4 *0101). At HLA-DR DRB5*0101 (DR51), this molecule had an IC50 of 41300 nM.
For the molecule ALLIIPPKIHISIEL, the IC50 came to 648 nM at HLA-DR DRB1*0101 (DR1) (DRB1 *0101); 1740 nM against HLA-DR DRB1*0401 (DR4) (DRB1 *0401); 8.4 nM against HLA-DR DRB1*0701 (DR7) (DRB1 *0701); 12000 nM on HLA-DR DRB1*0802 (DR8); 1820 nM at HLA-DR DRB1*1501 (DR15) (DRBI *1501); 10 nM at HLA-DR DRB4*0101 (DR53) (DRB4 *0101). Further, the IC50 against HLA-DR DRB5*0101 (DR51) came to 7140 nM.
Consider `CC[C@H](C)[C@H](NC(=O)[C@H](CCCCN)NC(=O)[C@H](C)NC(=O)[C@@H]1CCCN1C(=O)[C@H](CCC(=O)O)NC(=O)[C@H](CO)NC(=O)[C@H](CC(C)C)NC(=O)[C@H](CCCNC(=N)N)NC(=O)[C@H](CC(C)C)NC(=O)[C@H](CC(C)C)NC(=O)[C@H](CCSC)NC(=O)[C@H](CC(C)C)NC(=O)[C@H](CC(=O)O)NC(=O)[C@@H](N)Cc1c[nH]cn1)C(=O)N[C@H](C(=O)O)[C@@H](C)O`, for which the IC50 was determined as 16 nM on HLA-DR DRB1*0101 (DR1) (DRB1 *0101); 3060 nM on HLA-DR DRB1*0401 (DR4) (DRB1 *0401); 109 nM against HLA-DR DRB1*0701 (DR7) (DRB1 *0701); 544 nM against HLA-DR DRB1*0802 (DR8); 43 nM against HLA-DR DRB1*0901 (DR9) (DRB1 *0901); 0.83 nM against HLA-DR DRB1*1302 (DR13) (DRBI *1302). This molecule also gave an IC50 against HLA-DR DRB4*0101 (DR53) (DRB4 *0101) of 12 nM.
With YEALIKLLPFSKRIR, the IC50 was 55 nM at HLA-DR DRB1*0101 (DR1) (DRB1 *0101); 1840 nM against HLA-DR DRB1*0401 (DR4) (DRB1 *0401); 3580 nM against HLA-DR DRB1*0701 (DR7) (DRB1 *0701); 180 nM against HLA-DR DRB1*0802 (DR8); 230 nM against HLA-DR DRB1*1302 (DR13) (DRBI *1302); 36 nM against HLA-DR DRB1*1501 (DR15) (DRBI *1501). For the same molecule, the IC50 against HLA-DR DRB4*0101 (DR53) (DRB4 *0101) is 15 nM; against HLA-DR DRB5*0101 (DR51) it was 11 nM.
